The structures appear in SMILES notation. Where two headings read alike, the source gives them in different places.

Type in all cases: biochemical
One assay addresses WT EGFR kinase domain (Homo sapiens (Human), UniProt P00533). The assay is described as follows: EGFR enzymatic assay, TR-FRET, WT EGFR. A general note: Time-resolved FRET reads energy transfer from a long-lived donor to a nearby acceptor.
The target of assay [1] is EGFR T790M/L858R kinase domain (Homo sapiens (Human), UniProt P00533, L858R/T790M). The assay is described as follows: EGFR enzymatic assay, TR-FRET, EGFR T790M/L858R.
Chain of EGFR T790M/L858R kinase domain (P00533 669-1210 T790M/L858R): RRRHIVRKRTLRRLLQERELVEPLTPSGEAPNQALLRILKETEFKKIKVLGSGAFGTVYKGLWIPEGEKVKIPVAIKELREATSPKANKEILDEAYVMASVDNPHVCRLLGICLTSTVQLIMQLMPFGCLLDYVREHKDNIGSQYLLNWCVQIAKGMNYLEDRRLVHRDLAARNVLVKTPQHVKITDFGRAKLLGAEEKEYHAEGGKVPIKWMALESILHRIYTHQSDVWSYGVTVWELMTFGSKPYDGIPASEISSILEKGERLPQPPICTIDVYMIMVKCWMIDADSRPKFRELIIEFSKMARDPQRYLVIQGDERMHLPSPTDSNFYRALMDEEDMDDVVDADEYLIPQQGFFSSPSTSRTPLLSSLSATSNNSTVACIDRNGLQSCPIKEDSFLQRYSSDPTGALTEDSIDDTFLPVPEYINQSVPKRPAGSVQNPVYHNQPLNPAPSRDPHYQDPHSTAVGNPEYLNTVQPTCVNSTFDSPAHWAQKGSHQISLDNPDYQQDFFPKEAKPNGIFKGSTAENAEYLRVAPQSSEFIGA
The next assay has as its target C-Raf (Y340D/Y341D) (Homo sapiens (Human), UniProt P04049, Y340D/Y341D). The assay is described as follows: Raf IC50 assay, TR-FRET, C-Raf (Y340D/Y341D). To be noted: 0.1 mM ATP. As to the method:
Compounds disclosed herein were tested against B-Raf (V600E) (PV3849, from Invitrogen) or C-Raf (Y340D/Y341D) (PV3805, from Invitrogen) in a time-resolved fluorescence energy transfer assay. The assay was carried out in reactions (10 μL) containing 0.0625 nM B-Raf or 0.5 nM C-Raf, 25 mM Tris pH7.4, 10 mM MgCl2, 0.5 mM EGTA, 0.5 mM Na3VO4, 5 mM beta-glycerophosphate, 0.01% Triton X-100, 2.5 mM DTT, 0.1% BSA, 0.1 mM ATP, 13.7 nM GST-tagged MEK1 (Full-length protein with K97R mutation, recombinant protein purified from bacterial expression system) and 0-5 μM compounds disclosed herein (final concentration of 1% DMSO). The enzyme was incubated with the compounds disclosed herein at room temperature for 60 minutes and the reactions were initiated by the addition of ATP and GST-MEK1. After reaction at room temperature for 60 minutes, an equal volume of stop/detection solution was added according to the manufacture's instruction (CisBio Bioassays). The stop/detection solution contained Eu^3+ cryptate-conjugated anti-phospho MEK1/2 (Ser217/221) rabbit polyclonal antibody and d2-conjugated anti-GST mouse monoclonal antibody in buffer containing 25 mM Tris pH7.4, 400 mM KF, 50 mM EDTA, 0.01% BSA and 0.01% Triton X-100. Plates were sealed and incubated at room temperature for 2 hours, and the TR-FRET signals (ratio of fluorescence emission at 665 nm over emission at 620 nm with excitation at 337 nm wavelength) were recorded on a PHERAstar FS plate reader (BMG Labtech). Phosphorylation of MEK1 led to the binding of anti-phospho-MEK1/2 antibody to GST-MEK1 protein that place fluorescent donor (Eu^3+ crypate) in close proximity to the accepter d2 on the anti-GST antibody, thus resulting in a high degree of fluorescence resonance energy transfer from the donor fluorophore (at 620 nm) to the acceptor fluorophore (at 665 nm). […] The IC50 for each compound was derived from fitting the dose-response % inhibition data to the four-parameter logistic model by Graphpad Prism software.

Another assay deals with B-Raf (V600E) (Homo sapiens (Human), UniProt P15056, V600E). The assay is described as follows: Raf IC50 assay, TR-FRET, B-Raf (V600E). To be noted: 0.1 mM ATP; read-out: IC50 BRAF-V600E.
Chain of B-Raf (V600E) (P15056 whole entry V600E): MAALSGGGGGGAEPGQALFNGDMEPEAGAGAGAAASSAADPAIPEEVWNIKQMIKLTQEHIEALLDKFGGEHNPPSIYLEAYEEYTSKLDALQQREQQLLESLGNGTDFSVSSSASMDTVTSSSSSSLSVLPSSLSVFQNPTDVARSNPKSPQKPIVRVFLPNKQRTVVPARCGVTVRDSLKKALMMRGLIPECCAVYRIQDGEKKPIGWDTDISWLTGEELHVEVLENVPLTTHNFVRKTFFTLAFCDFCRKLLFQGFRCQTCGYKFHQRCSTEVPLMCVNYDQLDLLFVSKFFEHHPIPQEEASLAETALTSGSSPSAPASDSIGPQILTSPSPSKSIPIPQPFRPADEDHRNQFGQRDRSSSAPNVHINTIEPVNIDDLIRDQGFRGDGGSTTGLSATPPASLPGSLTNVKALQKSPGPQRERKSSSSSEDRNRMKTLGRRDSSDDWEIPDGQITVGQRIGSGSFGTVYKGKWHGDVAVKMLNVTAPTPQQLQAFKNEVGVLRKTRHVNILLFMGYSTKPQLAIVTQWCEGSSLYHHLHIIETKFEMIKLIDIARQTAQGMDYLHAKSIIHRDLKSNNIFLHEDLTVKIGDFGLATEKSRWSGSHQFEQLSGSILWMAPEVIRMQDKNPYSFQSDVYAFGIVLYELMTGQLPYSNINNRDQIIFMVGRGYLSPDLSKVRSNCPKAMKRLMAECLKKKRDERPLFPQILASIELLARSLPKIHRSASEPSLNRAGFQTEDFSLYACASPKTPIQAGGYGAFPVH
The next assay has as its target wild type B-Raf (Homo sapiens (Human), UniProt P15056). Description: WT BRaf IC50 assay, TR-FRET.
In a further assay the target is EGFR L858R kinase domain (Homo sapiens (Human), UniProt P00533, L858R). Description: EGFR enzymatic assay, TR-FRET, EGFR L858R.
Chain of EGFR L858R kinase domain (P00533 669-1210 L858R): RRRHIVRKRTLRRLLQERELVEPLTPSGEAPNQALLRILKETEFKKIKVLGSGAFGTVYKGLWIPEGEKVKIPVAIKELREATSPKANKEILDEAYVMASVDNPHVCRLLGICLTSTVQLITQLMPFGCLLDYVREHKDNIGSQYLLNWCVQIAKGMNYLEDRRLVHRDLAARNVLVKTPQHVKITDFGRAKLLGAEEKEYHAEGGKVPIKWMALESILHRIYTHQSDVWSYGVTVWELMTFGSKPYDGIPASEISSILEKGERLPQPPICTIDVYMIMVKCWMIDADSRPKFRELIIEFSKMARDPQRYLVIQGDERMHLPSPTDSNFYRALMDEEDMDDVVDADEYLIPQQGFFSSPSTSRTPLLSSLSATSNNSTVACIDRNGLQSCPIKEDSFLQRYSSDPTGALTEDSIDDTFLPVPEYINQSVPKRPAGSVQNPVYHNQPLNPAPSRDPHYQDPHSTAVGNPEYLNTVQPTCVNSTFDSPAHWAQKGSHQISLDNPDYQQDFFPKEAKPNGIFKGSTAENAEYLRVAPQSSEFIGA
[2] abbreviates: Km ATP ([…] ATP), read-out: IC50 Braf-WT Km ATP.

Chain of wild type B-Raf (P15056 whole entry, the tested form may be a part): as the sequence (P15056 whole entry V600E) above, with E600V counted along it
Chain of WT EGFR kinase domain (P00533 669-1210): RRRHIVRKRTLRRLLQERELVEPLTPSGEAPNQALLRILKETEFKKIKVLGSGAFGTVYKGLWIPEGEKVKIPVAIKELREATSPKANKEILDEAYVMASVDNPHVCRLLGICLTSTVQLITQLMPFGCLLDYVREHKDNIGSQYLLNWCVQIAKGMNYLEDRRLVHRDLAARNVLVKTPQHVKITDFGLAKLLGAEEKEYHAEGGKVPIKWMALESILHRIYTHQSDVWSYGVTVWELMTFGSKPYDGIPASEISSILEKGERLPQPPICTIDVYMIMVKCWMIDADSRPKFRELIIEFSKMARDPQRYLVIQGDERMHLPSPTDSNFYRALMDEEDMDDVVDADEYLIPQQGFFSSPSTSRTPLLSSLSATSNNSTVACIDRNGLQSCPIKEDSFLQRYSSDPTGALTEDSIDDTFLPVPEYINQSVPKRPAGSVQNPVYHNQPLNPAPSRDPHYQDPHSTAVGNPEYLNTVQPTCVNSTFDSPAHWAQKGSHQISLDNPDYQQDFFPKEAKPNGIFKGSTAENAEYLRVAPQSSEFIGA
Chain of C-Raf (Y340D/Y341D) (P04049 whole entry Y340D/Y341D): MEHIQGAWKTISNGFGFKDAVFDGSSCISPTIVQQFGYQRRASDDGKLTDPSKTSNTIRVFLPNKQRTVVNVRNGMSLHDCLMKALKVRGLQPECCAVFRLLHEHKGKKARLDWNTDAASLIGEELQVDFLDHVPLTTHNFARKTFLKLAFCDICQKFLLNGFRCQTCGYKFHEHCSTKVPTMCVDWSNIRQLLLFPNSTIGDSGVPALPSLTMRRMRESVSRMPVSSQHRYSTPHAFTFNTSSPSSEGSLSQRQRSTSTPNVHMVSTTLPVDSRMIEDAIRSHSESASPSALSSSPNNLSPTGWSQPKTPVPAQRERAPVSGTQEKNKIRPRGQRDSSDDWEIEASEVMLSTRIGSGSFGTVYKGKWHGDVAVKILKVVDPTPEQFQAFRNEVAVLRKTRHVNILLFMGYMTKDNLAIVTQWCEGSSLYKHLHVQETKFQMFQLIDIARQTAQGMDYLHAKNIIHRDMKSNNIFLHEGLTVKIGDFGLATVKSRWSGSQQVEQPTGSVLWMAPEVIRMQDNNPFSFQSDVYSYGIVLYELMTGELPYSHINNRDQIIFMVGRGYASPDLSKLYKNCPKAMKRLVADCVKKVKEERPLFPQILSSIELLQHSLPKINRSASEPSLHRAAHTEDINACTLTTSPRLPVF

One may read the IC50 as the concentration that gives 50% inhibition. For `O=C1CCc2c(Oc3ccc4c(c3)[C@H]3[C@H](NC(=O)c5cccc(C(F)(F)F)c5)[C@H]3O4)ccnc2N1` [Compound 1.35], the IC50 on WT EGFR kinase domain was determined as 18 nM; in assay [1], 47 nM; against C-Raf (Y340D/Y341D), 0.33 nM; at B-Raf (V600E), 1.2 nM; at wild type B-Raf (IC50 Braf-WT […] ATP, […] ATP) it was 12 nM; on wild type B-Raf (setting [2]), 4.4 nM. On EGFR L858R kinase domain, this molecule had an IC50 of 9.7 nM.

As for `O=C1CCc2c(Oc3ccc4c(c3)[C@H]3[C@H](NC(=O)c5cccc(F)c5)[C@H]3O4)ccnc2N1` [Compound 1.39], the IC50 was found to be 75 nM on WT EGFR kinase domain; 692 nM in assay [1]; 0.15 nM against C-Raf (Y340D/Y341D); 0.76 nM at B-Raf (V600E); 0.9 nM at wild type B-Raf (setting [2]); 30 nM on EGFR L858R kinase domain.

Take `O=C1CCc2c(Oc3ccc4c(c3)[C@H]3[C@H](NC(=O)c5ccc(C(F)(F)F)cc5)[C@H]3O4)ccnc2N1` [Compound 1.40]: the half-inhibitory concentration (IC50) against WT EGFR kinase domain came out at 13 nM; in assay [1], 84 nM; against C-Raf (Y340D/Y341D), 0.64 nM; on B-Raf (V600E) it was 8.1 nM; on wild type B-Raf (setting [2]), 5.7 nM; against EGFR L858R kinase domain, 12 nM.

Turning to `CC(C)(C#N)c1cccc(C(=O)N[C@@H]2[C@H]3Oc4ccc(Oc5ccnc6c5CCC(=O)N6)cc4[C@@H]23)c1` [Compound 1.43], the IC50 against WT EGFR kinase domain turned out to be 13 nM; in assay [1] it was 38 nM; on C-Raf (Y340D/Y341D) it was 0.34 nM; at B-Raf (V600E) it was 4.1 nM; at wild type B-Raf (setting [2]) it was 4.4 nM; against EGFR L858R kinase domain, 11 nM.

With `CN(C)[C@H]1CCCN(c2ccc(C(=O)N[C@@H]3[C@H]4Oc5ccc(Oc6ccnc7c6CCC(=O)N7)cc5[C@@H]34)cc2C(F)(F)F)C1` [Compound 1.47, 4-((S)-3-(dimethylamino)piperidin-1-yl)-N-((1S,1aS,6bS)-5-((7-oxo-5,6,7,8-tetrahydro-1,8-naphthyridin-4-yl)oxy)-1a,6b-dihydro-1H-cyclopropa[b]benzofuran-1-yl)-3-(trifluoromethyl)benzamide], the IC50 on WT EGFR kinase domain worked out at 1.4 nM; in assay [1], 6.6 nM; against C-Raf (Y340D/Y341D) it was 1.2 nM; on B-Raf (V600E), 10 nM; on wild type B-Raf (setting [2]) it was 8.5 nM; against EGFR L858R kinase domain, 0.39 nM.

With `CN1CCN(c2ccc(C(=O)N[C@@H]3[C@H]4Oc5ccc(Oc6ccnc7c6CCC(=O)N7)cc5[C@@H]34)cc2C(F)(F)F)CC1` [Compound 1.49], the IC50 at WT EGFR kinase domain amounted to 5.1 nM; in assay [1], 38 nM; on C-Raf (Y340D/Y341D) it was 2.6 nM; at B-Raf (V600E) it was 9.5 nM; on wild type B-Raf (setting [2]), 13 nM; against EGFR L858R kinase domain it was 4.6 nM.

On to `CCN1CCN(Cc2ccc(C(=O)N[C@@H]3[C@H]4Oc5ccc(Oc6ccnc7c6COC(=O)N7)cc5[C@@H]34)cc2C(F)(F)F)CC1` [Compound 2.1, 4-((4-ethylpiperazin-1-yl)methyl)-N-((1S,1aS,6bS)-5-((2-oxo-2,4-dihydro-1H-pyrido[2,3-d][1,3]oxazin-5-yl)oxy)-1a,6b-dihydro-1H-cyclopropa[b]benzofuran-1-yl)-3-(trifluoromethyl)benzamide], for which the IC50 against WT EGFR kinase domain stood at 1.8 nM; in assay [1], 0.25 nM; against C-Raf (Y340D/Y341D) it was 2.3 nM; on B-Raf (V600E), 16 nM; at wild type B-Raf (setting [2]), 15 nM; against EGFR L858R kinase domain, 0.38 nM.

For the molecule `CCN1CCN(Cc2ccc(C(=O)N[C@@H]3[C@H]4Oc5ccc(Oc6ccnc(C(=O)NC)c6)cc5[C@@H]34)cc2C(F)(F)F)CC1` [Compound 2.3, 4-(((1S,1aS,6bS)-1-(4-((4-ethylpiperazin-1-yl)methyl)-3-(trifluoromethyl)benzamido)-1a,6b-dihydro-1H-cyclopropa[b]benzofuran-5-yl)oxy)-N-methylpicolinamide], the IC50 on WT EGFR kinase domain came to 7.1 nM; in assay [1], 22 nM; against C-Raf (Y340D/Y341D) it was 12 nM; on B-Raf (V600E), 54 nM; at wild type B-Raf (setting [2]) it was 52 nM; against EGFR L858R kinase domain it was 4.7 nM.

The values above are taken from patent publication US9670231B2, “Fused tricyclic amide compounds as multiple kinase inhibitors” (BEIGENE, LTD., priority 2013, dated 2017).
